The results in this text go back to ChEMBL document CHEMBL1221220, “Transport and signaling via the amino acid binding site of the yeast Gap1 amino acid transceptor” (Nat Chem Biol, 2009).

Non-standard residues stand in square brackets, D forms with d. Residues, ends and D or L forms follow the SMILES beside them. NMeD = CN[C@@H](CC(=O)O)C(=O)O; pGlu = O=C1CC[C@@H](C(=O)O)N1; Abu = CC[C@H](N)C(=O)O; Sar = CNCC(=O)O Bounds are passed on as bounds.
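Note: amino acid uptake through Gap1 in nitrogen-starved wild-type yeast cells, measured after 60 s and expressed relative to L-citrulline.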

This assay has as its target T1, General amino-acid permease GAP1 (Saccharomyces cerevisiae) (UniProt P19145).
T1 sequence (whole entry): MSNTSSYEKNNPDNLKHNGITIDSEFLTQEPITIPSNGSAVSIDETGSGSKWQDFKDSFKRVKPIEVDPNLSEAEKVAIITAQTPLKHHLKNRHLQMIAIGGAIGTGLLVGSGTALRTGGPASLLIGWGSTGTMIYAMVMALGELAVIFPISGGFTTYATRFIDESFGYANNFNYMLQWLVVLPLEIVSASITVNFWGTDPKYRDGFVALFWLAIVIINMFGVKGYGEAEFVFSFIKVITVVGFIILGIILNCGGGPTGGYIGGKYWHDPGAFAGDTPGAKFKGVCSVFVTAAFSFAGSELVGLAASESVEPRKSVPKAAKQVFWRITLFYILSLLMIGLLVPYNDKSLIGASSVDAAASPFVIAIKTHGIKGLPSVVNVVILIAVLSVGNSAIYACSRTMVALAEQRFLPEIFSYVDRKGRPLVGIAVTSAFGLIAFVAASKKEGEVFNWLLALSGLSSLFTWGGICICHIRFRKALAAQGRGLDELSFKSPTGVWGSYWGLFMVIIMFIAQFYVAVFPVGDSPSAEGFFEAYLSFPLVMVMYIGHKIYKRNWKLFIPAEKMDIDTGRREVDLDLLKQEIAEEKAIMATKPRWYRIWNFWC
The note with it: sigma1278b, at 5 mM.
Description: Inhibition of nitrogen-starved wild type sigma1278b yeast Gap1-mediated amino acid uptake at 5 mM after 60 secs relative to L-citrulline
`CC(C)(C)OC(=O)NC1(C(=O)O)CCCC1` gave an inhibition of under 15%.
With `CSCC[C@H](NC(=O)[C@@H](N)[C@@H](C)O)C(=O)O` (H-Thr-Met-OH), the inhibition is under 15%.
`C[C@@H](O)[C@@H](NC(=O)CN)C(=O)O` gave an inhibition of under 15%.
To `NCC(=O)N[C@@H](CCC(=O)O)C(=O)O` (H-Gly-Glu-OH) belongs under 15%; to `N[C@@H](CO)C(=O)N[C@@H](CO)C(=O)O` (H-Ser-Ser-OH), under 15%.
Regarding `CC(C)C[C@@H](N)C(=O)N[C@@H](CC(C)C)C(=O)O`, the inhibition is under 15%.
To `CC[C@H](C)[C@H](NC(=O)CN)C(=O)NCC(=O)O` (H-Gly-Ile-Gly-OH) belongs under 15%; to `CC(C)C[C@H](NC(=O)CCCN)C(=O)O`, under 15%.
`O=C(O)C[C@H](NC(=O)OCc1ccccc1)C(=O)O` had an inhibition of under 15%.
Consider `NCC[C@H]1CC[C@H](C(=O)O)CC1`, for which the inhibition is under 15%.
Consider `CCOC(=O)[C@@H](N)Cc1c[nH]c2ccccc12`, for which the inhibition was under 15%.
Then `NCCCC[C@H](N)C(=O)N[C@@H](Cc1c[nH]c2ccccc12)C(=O)O` (H-Lys-Trp-OH), with under 15%; and `COC(=O)[C@@H](N)[C@@H](C)O`, with under 15%; and `NCC(=O)N[C@H](Cc1ccccc1)C(=O)O`, with over 30%.
Then `CC(C)C[C@H](NC(=O)OC(C)(C)C)C(=O)O`, with under 15%.
Then `NCCCC(=O)N[C@@H](Cc1cnc[nH]1)C(=O)O`, with under 15%.
Compound `CC(C)C[C@@H](N)C(=O)N[C@H](Cc1ccc(O)cc1)C(=O)O` displayed an inhibition of under 15%.
To `C[C@@H](NC(=O)[C@@H](N)CCC(=O)O)C(=O)O` belongs under 15%; to `CC(C)C[C@H](NC(=O)[C@@H](N)CC(C)C)C(=O)N[C@@H](CCC(=O)O)C(=O)O` (H-Leu-Leu-Glu-OH), 15%; to `CSCC[C@H](NC(=O)[C@@H](N)CCSC)C(=O)N[C@@H](C)C(=O)O` (H-Met-Met-Ala-OH), under 15%.
To `N=C(N)NCCC[C@H](NC(=O)[C@@H](N)CC(=O)O)C(=O)O` (H-Asp-Arg-OH) belongs under 15%.
With `CC(=O)NCC(=O)N[C@@H](Cc1cnc[nH]1)C(=O)N[C@@H](CCCCN)C(=O)O` (Ac-Gly-His-Lys-OH), the inhibition was under 15%.
Then `CN[C@@H](CC(=O)O)C(=O)N[C@@H](Cc1ccccc1)C(N)=O` (H-[NMeD]-Phe-NH2), with under 15%; and `CSCC[C@H](NC(=O)CN)C(=O)NCC(=O)O` (H-Gly-Met-Gly-OH), with under 15%.
To `CC[C@H](C)[C@H](NC(=O)OC(C)(C)C)C(=O)O` belongs under 15%; to `C[C@H](N)C(=O)NCC(=O)O` (racemic), over 30%.
In turn, `N[C@@H](Cc1c[nH]cn1)C(=O)N[C@@H](CO)C(=O)O` (H-His-Ser-OH) came in with an inhibition of under 15%.
Then `O=C(O)CNC(=O)[C@H](Cc1cnc[nH]1)NC(=O)[C@@H]1CCC(=O)N1` ([pGlu]-His-Gly-OH), with under 15%; and `CC(=O)N[C@@H](COC(C)(C)C)C(=O)O`, with under 15%.
For the compound `NCC(=O)NCC(=O)O` (H-Gly-Gly-OH), the inhibition was under 15%.
Regarding `CN[C@@H](CC(C)C)C(=O)N[C@@H](CC(C)C)C(=O)O`, the inhibition stood at 15%.
To `CCC[C@@H](NC(=O)[C@@H](N)CCC(=O)O)C(=O)O` belongs under 15%.
Consider `C[C@H](NC(=O)CN)C(=O)O` (H-Gly-Ala-OH), for which the inhibition was found to be 15%.
To `CSCC[C@H](NC(=O)CN)C(=O)N[C@@H](CC(C)C)C(=O)O` (H-Gly-Met-Leu-OH) belongs under 15%.
To `CC(C)(C)OC(=O)N1CCC[C@H]1C(=O)O` belongs under 15%; to `N[C@@H](CO)C(=O)N[C@@H](CO)C(=O)N[C@@H](CO)C(=O)O` (H-Ser-Ser-Ser-OH), under 15%; to `N[C@@H](CCC(=O)O)C(=O)N[C@@H](Cc1ccc(O)cc1)C(=O)N[C@@H](CCC(=O)O)C(=O)O` (H-Glu-Tyr-Glu-OH), 15%.
As for `COC(=O)[C@@H](N)CC(C)C`, the inhibition was under 15%.
Then `CC(C)C[C@H](NC(=O)[C@@H](NC(=O)[C@@H](N)[C@@H](C)O)C(C)C)C(=O)O` (H-Thr-Val-Leu-OH), with under 15%; and `CC[C@H](C)[C@H](NC(=O)[C@@H](N)CC(C)C)C(=O)O` (H-Leu-Ile-OH), with under 15%.
Take `CC(C)[C@@H](NC(=O)CN)C(=O)O`: the inhibition is under 15%.
To `CC[C@H](N)C(=O)N[C@@H](CC(C)C)C(=O)O` (H-[Abu]-Leu-OH) belongs under 15%; to `CC(C)C[C@H](NC(=O)[C@@H](N)CC(C)C)C(=O)N[C@H](C(=O)O)C(C)C` (H-Leu-Leu-Val-OH), under 15%; to `C[C@@H](CC(=O)O)NC(=O)OC(C)(C)C`, under 15%.
The compound `NCC(=O)N[C@@H](Cc1cnc[nH]1)C(=O)NCC(=O)O` (H-Gly-His-Gly-OH) had an inhibition of under 15%.
To `CSCC[C@H](N)C(=O)N[C@@H](CO)C(=O)O` (H-Met-Ser-OH) belongs under 15%.
On to `CC(C)[C@H](NC(=O)CNC(=O)CN)C(=O)O` (H-Gly-Gly-Val-OH), for which the inhibition is under 15%.
In turn, `CC(C)C[C@H](NC(=O)CNC(=O)c1ccccc1)C(N)=O` returned an inhibition of under 15%.
To `N[C@@H](Cc1ccccc1)C(=O)NCC(=O)O` (H-Phe-Gly-OH) belongs under 15%; to `CN(CC(=O)O)C(=O)CNC(=O)CN` (H-Gly-Gly-[Sar]-OH), under 15%; to `CC(C)C[C@H](N)C(=O)N[C@@H](Cc1ccc(O)cc1)C(=O)O`, over 30%.
As for `CC(C)C[C@@H](NC(=O)CN)C(=O)O`, the inhibition is under 15%.
`NCC(=O)NCC(=O)N[C@@H](CC(=O)O)C(=O)O` (H-Gly-Gly-Asp-OH) gave an inhibition of under 15%.
To `NCCCC[C@H](NC(=O)[C@@H](N)Cc1ccc(O)cc1)C(=O)O` (H-Tyr-Lys-OH) belongs over 30%; to `CC[C@H](C)[C@H](NC(C)=O)C(=O)O`, under 15%; to `CC(=O)N1CCC[C@H]1C(=O)N[C@@H](Cc1ccccc1)C(=O)N[C@@H](CCCNC(=N)N)C(=O)O` (Ac-Pro-Phe-Arg-OH), under 15%.
Then `CSCC[C@H](N)C(=O)NCC(=O)O` (H-Met-Gly-OH), with under 15%; and `CC(=O)N[C@@H](Cc1c[nH]c2ccccc12)C(=O)O`, with under 15%.
On to `C[C@@H](O)[C@H](NC(=O)OC(C)(C)C)C(=O)O`, for which the inhibition is under 15%.
Consider `C[C@@H](O)[C@H](NC(=O)[C@H](CCCCN)NC(=O)[C@@H](N)Cc1ccc(O)cc1)C(=O)O` (H-Tyr-Lys-Thr-OH), for which the inhibition is under 15%.
As to `CSCC[C@H](N)C(=O)N[C@@H](C)C(=O)N[C@@H](CO)C(=O)O` (H-Met-Ala-Ser-OH), the inhibition is under 15%.
Then `CC(C)C[C@H](N)C(=O)N[C@@H](Cc1cnc[nH]1)C(=O)O` (H-Leu-His-OH), with over 30%; and `CC[C@H](C)[C@H](N)C(=O)N[C@@H](C)C(=O)N1CCC[C@H]1C(=O)O` (H-Ile-Ala-Pro-OH), with 15%.
To `O=C(O)[C@@H]1C=CCN1` belongs under 15%; to `C[C@H](N)C(=O)NCC(=O)O`, over 30%; to `COC(=O)[C@H](N)Cc1cnc[nH]1`, under 15%.
Then `CC(C)C[C@@H](N)C(=O)NCC(=O)NCC(=O)O` (H-[dL]-Gly-Gly-OH), with under 15%; and `C[C@H](N)C(=O)N[C@H](CCC(=O)O)C(N)=O` (H-Ala-[dE]-NH2), with under 15%; and `O=C(O)C1CCCCN1` (centres undefined), with under 15%.
In turn, `CSCC[C@H](N)C(=O)NCC(=O)N[C@@H](CC(=O)O)C(=O)O` (H-Met-Gly-Asp-OH) showed an inhibition of under 15%.
For `CC[C@H](C)[C@H](N)C(=O)N[C@@H](CC(C)C)C(=O)N[C@@H](CC(C)C)C(=O)O` (H-Ile-Leu-Leu-OH), the inhibition is over 30%.
Then `NCC(=O)NCC(=O)N[C@@H](Cc1ccccc1)C(=O)O` (H-Gly-Gly-Phe-OH), with under 15%; and `NCCS(=O)(=O)O`, with under 15%.
To `CC[C@H](C)[C@H](N)C(=O)OC` belongs under 15%; to `CC(C)C[C@H](N)C(=O)N[C@H](C(=O)O)C(C)C` (H-Leu-Val-OH), under 15%.
On to `C[C@H](NC(=O)[C@@H](N)CCC(N)=O)C(=O)O` (H-Gln-Ala-OH), for which the inhibition was under 15%.
Then `CC(C)(C)OC(=O)[C@@H](N)CSSC[C@H](N)C(=O)OC(C)(C)C`, with under 15%.
To `C[C@H](NC(=O)[C@@H](N)[C@@H](C)O)C(=O)O` (H-Thr-Ala-OH) belongs under 15%.
Take `N[C@@H](Cc1ccco1)C(=O)O`: the inhibition was over 30%.
As to `COC(=O)[C@H](C)N`, the inhibition is under 15%.
Compound `CC(C)C[C@H](NC(=O)CNC(=O)CN)C(=O)O` came in with an inhibition of under 15%.
For the compound `N[C@@H](CO)Cc1c[nH]c2ccccc12`, the inhibition is under 15%.
Take `CC(C)C[C@H](NC(=O)[C@H](Cc1cnc[nH]1)NC(=O)CN)C(N)=O` (H-Gly-His-Leu-NH2): the inhibition is under 15%.
`CSCC[C@H](NC(=O)OC(C)(C)C)C(=O)O` came in with an inhibition of under 15%.

One may read the inhibition as the share of the control response that was lost under treatment. A low value points to a response near the control.
